What follows are compounds tested against recombinant mTOR (FLAG-tagged, residues 1362-2549) (Homo sapiens, UniProt P42345) (assay: In vitro mTOR kinase assay (Test (a), AlphaScreen)). Details: ATP 20 μM, read-out: Test (a): IC50 versus mTOR kinase.
Type: biochemical
Protocol: (a) In Vitro mTOR Kinase Assay
Following expression in the mammalian HEK293 cell line, expressed protein was purified using the FLAG epitope tag using standard purification techniques.
Aliquots (2 μl) of each compound dilution were placed into a well of a Greiner 384-well low volume (LV) white polystyrene plate (Greiner Bio-one).
These assay solutions were incubated for 2 hours at room temperature.
The resultant signals arising from laser light excitation at 680 nm were read using a Packard Envision instrument.
The phosphorylated biotinylated peptide that is associated with AlphaScreen Streptavidin donor beads forms a complex with the p70 S6 Kinase (T389) 1A5 Monoclonal Antibody that is associated with Alphascreen Protein A acceptor beads. Upon laser light excitation at 680 nm, the donor bead: acceptor bead complex produces a signal that can be measured. Accordingly, the presence of mTOR kinase activity results in an assay signal. In the presence of an mTOR kinase inhibitor, signal strength is reduced.
mTOR enzyme inhibition for a given test compound was expressed as an IC50 value.

Chain of recombinant mTOR (FLAG-tagged, residues 1362-2549) (P42345 1362-2549): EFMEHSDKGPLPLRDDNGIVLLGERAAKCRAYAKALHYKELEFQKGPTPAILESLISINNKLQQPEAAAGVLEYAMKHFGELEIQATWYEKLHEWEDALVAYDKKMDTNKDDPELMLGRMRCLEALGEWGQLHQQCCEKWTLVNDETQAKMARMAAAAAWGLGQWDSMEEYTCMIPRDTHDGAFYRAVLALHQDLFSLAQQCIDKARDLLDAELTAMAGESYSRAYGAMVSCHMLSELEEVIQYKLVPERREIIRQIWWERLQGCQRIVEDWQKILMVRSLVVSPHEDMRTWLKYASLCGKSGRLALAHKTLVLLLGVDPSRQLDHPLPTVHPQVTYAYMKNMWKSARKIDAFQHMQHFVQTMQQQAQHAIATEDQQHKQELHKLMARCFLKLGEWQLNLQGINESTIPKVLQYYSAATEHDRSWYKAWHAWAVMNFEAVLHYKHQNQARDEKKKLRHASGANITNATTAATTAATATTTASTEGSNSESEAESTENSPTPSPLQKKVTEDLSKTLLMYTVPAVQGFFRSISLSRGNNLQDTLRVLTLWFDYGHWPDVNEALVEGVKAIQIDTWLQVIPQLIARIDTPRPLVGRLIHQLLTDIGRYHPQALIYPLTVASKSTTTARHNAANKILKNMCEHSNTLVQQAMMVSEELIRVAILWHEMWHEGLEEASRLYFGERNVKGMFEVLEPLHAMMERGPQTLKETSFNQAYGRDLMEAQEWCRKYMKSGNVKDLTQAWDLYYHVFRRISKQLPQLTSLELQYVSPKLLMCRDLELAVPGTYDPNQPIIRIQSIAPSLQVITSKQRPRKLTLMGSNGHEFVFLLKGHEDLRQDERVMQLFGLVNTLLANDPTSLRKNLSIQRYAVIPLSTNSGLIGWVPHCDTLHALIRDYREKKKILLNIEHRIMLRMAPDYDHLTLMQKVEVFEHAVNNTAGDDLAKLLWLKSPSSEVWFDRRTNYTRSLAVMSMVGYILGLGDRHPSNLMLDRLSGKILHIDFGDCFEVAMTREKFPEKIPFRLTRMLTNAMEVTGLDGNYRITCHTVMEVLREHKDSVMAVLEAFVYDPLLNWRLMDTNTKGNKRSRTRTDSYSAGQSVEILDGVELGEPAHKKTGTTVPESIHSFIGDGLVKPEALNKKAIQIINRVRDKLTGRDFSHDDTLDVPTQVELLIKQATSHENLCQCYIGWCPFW

**Q.** Which IC50 does the source give for `CCNC(=O)Nc1ccc(-c2nc(CS(C)(=O)=O)cc(N3CCOC[C@@H]3C)n2)cc1` [Example 1, 1-Ethyl-3-[4-[4-[(3S)-3-methylmorpholin-4-yl]-6-(methylsulfonylmethyl)pyrimidin-2-yl]phenyl]urea] here?
**A.** 6.2 nM

**Q.** `COc1ccc(NC(=O)Nc2ccc(-c3nc(CS(C)(=O)=O)cc(N4CCOC[C@@H]4C)n3)cc2)cc1` [Example 1a, 1-(4-methoxyphenyl)-3-[4-[4-[(3S)-3-methylmorpholin-4-yl]-6-(methylsulfonylmethyl)pyrimidin-2-yl]phenyl]urea] was tested. Which IC50 did it give?
**A.** 62 nM

**Q.** Which IC50 does the source give for `CC(C)NC(=O)Nc1ccc(-c2nc(CS(C)(=O)=O)cc(N3CCOC[C@@H]3C)n2)cc1` [Example 1c, 3-[4-[4-[(3S)-3-methylmorpholin-4-yl]-6-(methylsulfonylmethyl)pyrimidin-2-yl]phenyl]-1-propan-2-yl-urea] here?
**A.** 78 nM

**Q.** `C[C@H]1COCCN1c1cc(CS(C)(=O)=O)nc(-c2ccc(NC(=O)Nc3ccc(F)cc3)cc2)n1` [Example 1e, 3-(4-fluorophenyl)-1-[4-[4-[(3S)-3-methylmorpholin-4-yl]-6-(methylsulfonylmethyl)pyrimidin-2-yl]phenyl]urea] was tested. Which IC50 did it give?
**A.** 320 nM

**Q.** How did the IC50 turn out when `C[C@H]1COCCN1c1cc(CS(C)(=O)=O)nc(-c2ccc(NC(=O)Nc3ccc(F)cc3)c(F)c2)n1` [Example 1f, 1-[2-fluoro-4-[4-[(3S)-3-methylmorpholin-4-yl]-6-(methylsulfonylmethyl)pyrimidin-2-yl]phenyl]-3-(4-fluorophenyl)urea] was run?
**A.** 360 nM

**Q.** How did the IC50 turn out when `C[C@H]1COCCN1c1cc(CS(C)(=O)=O)nc(-c2ccc(NC(=O)Nc3ccccc3)c(F)c2)n1` [Example 1g, 1-[2-fluoro-4-[4-[(3S)-3-methylmorpholin-4-yl]-6-(methylsulfonylmethyl)pyrimidin-2-yl]phenyl]-3-phenyl-urea] was run?
**A.** 960 nM

**Q.** `COc1cc(-c2nc(CS(C)(=O)=O)cc(N3CCOC[C@@H]3C)n2)ccc1NC(=O)Nc1ccc(F)cc1` [Example 1h, 3-(4-fluorophenyl)-1-[2-methoxy-4-[4-[(3S)-3-methylmorpholin-4-yl]-6-(methylsulfonylmethyl)pyrimidin-2-yl]phenyl]urea] was tested. Which IC50 did it give?
**A.** 1200 nM

**Q.** How did the IC50 turn out when `COc1ccc(NC(=O)Nc2ccc(-c3nc(CS(C)(=O)=O)cc(N4CCOC[C@@H]4C)n3)cc2OC)cc1` [Example 1i, 3-[2-methoxy-4-[4-[(3S)-3-methylmorpholin-4-yl]-6-(methylsulfonylmethyl)pyrimidin-2-yl]phenyl]-1-(4-methoxyphenyl)urea] was run?
**A.** 550 nM

**Q.** With `C[C@H]1COCCN1c1cc(CS(C)(=O)=O)nc(-c2ccc(NC(=O)Nc3ccc(F)cc3)nc2)n1` [Example 1j, 3-(4-fluorophenyl)-1-[5-[4-[(3S)-3-methylmorpholin-4-yl]-6-(methylsulfonylmethyl)pyrimidin-2-yl]pyridin-2-yl]urea] as the compound, how does the IC50 read?
**A.** 43 nM

**Q.** How did the IC50 turn out when `C[C@H]1COCCN1c1cc(CS(C)(=O)=O)nc(-c2ccc(NC(=O)N3CCC3)cc2)n1` [Example 2, N-[4-[4-[(3S)-3-methylmorpholin-4-yl]-6-(methylsulfonylmethyl)pyrimidin-2-yl]phenyl]azetidine-1-carboxamide] was run?
**A.** 310 nM

**Q.** How did the IC50 turn out when `COCCN(C)C(=O)Nc1ccc(-c2nc(CS(C)(=O)=O)cc(N3CCOC[C@@H]3C)n2)cc1` [Example 2a, 1-(2-methoxyethyl)-1-methyl-3-[4-[4-[(3S)-3-methylmorpholin-4-yl]-6-(methylsulfonylmethyl)pyrimidin-2-yl]phenyl]urea] was run?
**A.** 2300 nM

**Q.** For `C[C@H]1COCCN1c1cc(CS(C)(=O)=O)nc(-c2ccc(NC(=O)N(C)C)cc2)n1` [Example 2b, 1,1-dimethyl-3-[4-[4-[(3S)-3-methylmorpholin-4-yl]-6-(methylsulfonylmethyl)pyrimidin-2-yl]phenyl]urea], which IC50 is on record?
**A.** 290 nM

**Q.** For `COc1cc(-c2nc(CS(C)(=O)=O)cc(N3CCOC[C@@H]3C)n2)ccc1NC(=O)N(C)C` [Example 2c, 3-[2-methoxy-4-[4-[(3S)-3-methylmorpholin-4-yl]-6-(methylsulfonylmethyl)pyrimidin-2-yl]phenyl]-1,1-dimethyl-urea], which IC50 is on record?
**A.** 1200 nM

**Q.** With `CNC(=O)Nc1ccc(-c2nc(CS(C)(=O)=O)cc(N3CCOC[C@@H]3C)n2)cc1` [Example 2d, 1-methyl-3-[4-[4-[(3S)-3-methylmorpholin-4-yl]-6-(methylsulfonylmethyl)pyrimidin-2-yl]phenyl]urea] as the compound, how does the IC50 read?
**A.** 6.8 nM

**Q.** Which IC50 does the source give for `CNC(=O)Nc1ccc(-c2nc(CS(C)(=O)=O)cc(N3CCOC[C@@H]3C)n2)cc1F` [Example 2e, 3-[2-fluoro-4-[4-[(3S)-3-methylmorpholin-4-yl]-6-(methylsulfonylmethyl)pyrimidin-2-yl]phenyl]-1-methyl-urea] here?
**A.** 38 nM

**Q.** `C[C@H]1COCCN1c1cc(CS(C)(=O)=O)nc(-c2ccc(NC(=O)N(C)C)c(F)c2)n1` [Example 2f, 3-[2-fluoro-4-[4-[(3S)-3-methylmorpholin-4-yl]-6-(methylsulfonylmethyl)pyrimidin-2-yl]phenyl]-1,1-dimethyl-urea] was tested. Which IC50 did it give?
**A.** 1700 nM

**Q.** Which IC50 does the source give for `Cc1cc(-c2nc(CS(C)(=O)=O)cc(N3CCOC[C@@H]3C)n2)ccc1NC(=O)Nc1ccccc1` [Example 3, 1-[2-Methyl-4-[4-[(3S)-3-methylmorpholin-4-yl]-6-(methylsulfonylmethyl)pyrimidin-2-yl]phenyl]-3-phenyl-urea] here?
**A.** 1500 nM

**Q.** `CCNC(=O)Nc1ccc(-c2nc(CS(C)(=O)=O)cc(N3CCOC[C@@H]3C)n2)cc1OC` [Example 3a, 1-ethyl-3-[2-methoxy-4-[4-[(3S)-3-methylmorpholin-4-yl]-6-(methylsulfonylmethyl)pyrimidin-2-yl]phenyl]urea] was tested. Which IC50 did it give?
**A.** 100 nM

**Q.** `C[C@H]1COCCN1c1cc(CS(C)(=O)=O)nc(-c2ccc(NC(=O)Nc3ccccc3)c(Cl)c2)n1` [Example 3b, 1-[2-Chloro-4-[4-[(3S)-3-methylmorpholin-4-yl]-6-(methylsulfonylmethyl)pyrimidin-2-yl]phenyl]-3-phenyl-urea] was tested. Which IC50 did it give?
**A.** 440 nM

**Q.** With `C[C@H]1COCCN1c1cc(CS(C)(=O)=O)nc(-c2cccc(NC(=O)Nc3ccccc3)c2)n1` [Example 3c, 1-[3-[4-[(3S)-3-Methylmorpholin-4-yl]-6-(methylsulfonylmethyl)pyrimidin-2-yl]phenyl]-3-phenyl-urea] as the compound, how does the IC50 read?
**A.** 3300 nM

**Q.** For `C[C@H]1COCCN1c1cc(CS(C)(=O)=O)nc(-c2ccc(N(C)C(=O)Nc3ccccc3)cc2)n1` [Example 3d, 1-Methyl-1-[4-[4-[(3S)-3-methylmorpholin-4-yl]-6-(methylsulfonylmethyl)pyrimidin-2-yl]phenyl]-3-phenyl-urea], which IC50 is on record?
**A.** 2900 nM

**Q.** How did the IC50 turn out when `CCNC(=O)Nc1ccc(-c2nc(CS(C)(=O)=O)cc(N3CCOC[C@@H]3C)n2)cc1F` [Example 4, 1-Ethyl-3-[2-fluoro-4-[4-[(3S)-3-methylmorpholin-4-yl]-6-(methylsulfonylmethyl)pyrimidin-2-yl]phenyl]urea] was run?
**A.** 31 nM

**Q.** With `C[C@H]1COCCN1c1cc(CS(C)(=O)=O)nc(-c2ccc(NC(=O)N3CCC3)c(F)c2)n1` [Example 4a, N-[2-Fluoro-4-[4-[(3S)-3-methylmorpholin-4-yl]-6-(methylsulfonylmethyl)pyrimidin-2-yl]phenyl]azetidine-1-carboxamide] as the compound, how does the IC50 read?
**A.** 1000 nM

**Q.** With `CC(C)NC(=O)Nc1ccc(-c2nc(CS(C)(=O)=O)cc(N3CCOC[C@@H]3C)n2)cc1F` [Example 4b, 3-[2-fluoro-4-[4-[(3S)-3-methylmorpholin-4-yl]-6-(methylsulfonylmethyl)pyrimidin-2-yl]phenyl]-1-propan-2-yl-urea] as the compound, how does the IC50 read?
**A.** 140 nM

**Q.** `COCCNC(=O)Nc1ccc(-c2nc(CS(C)(=O)=O)cc(N3CCOC[C@@H]3C)n2)cc1` [Example 4d, 1-(2-methoxyethyl)-3-[4-[4-[(3S)-3-methylmorpholin-4-yl]-6-(methylsulfonylmethyl)pyrimidin-2-yl]phenyl]urea] was tested. Which IC50 did it give?
**A.** 170 nM

**Q.** `COCCNC(=O)Nc1ccc(-c2nc(CS(C)(=O)=O)cc(N3CCOC[C@@H]3C)n2)cc1OC` [Example 4e, 1-(2-methoxyethyl)-3-[2-methoxy-4-[4-[(3S)-3-methylmorpholin-4-yl]-6-(methylsulfonylmethyl)pyrimidin-2-yl]phenyl]urea] was tested. Which IC50 did it give?
**A.** 600 nM

**Q.** `COCCN(C)C(=O)Nc1ccc(-c2nc(CS(C)(=O)=O)cc(N3CCOC[C@@H]3C)n2)cc1F` [Example 4f, 3-[2-Fluoro-4-[4-[(3S)-3-methylmorpholin-4-yl]-6-(methylsulfonylmethyl)pyrimidin-2-yl]phenyl]-1-(2-methoxyethyl)-1-methyl-urea] was tested. Which IC50 did it give?
**A.** 680 nM

**Q.** Which IC50 does the source give for `COCCNC(=O)Nc1ccc(-c2nc(CS(C)(=O)=O)cc(N3CCOC[C@@H]3C)n2)cc1F` [Example 4g, 3-[2-fluoro-4-[4-[(3S)-3-methylmorpholin-4-yl]-6-(methylsulfonylmethyl)pyrimidin-2-yl]phenyl]-1-(2-methoxyethyl)urea] here?
**A.** 830 nM

**Q.** `CCNC(=O)Nc1ccc(-c2nc(CO)cc(N3CCOC[C@@H]3C)n2)cc1` [Example 5, 1-Ethyl-3-[4-[4-(hydroxymethyl)-6-[(3S)-3-methylmorpholin-4-yl]pyrimidin-2-yl]phenyl]urea] was tested. Which IC50 did it give?
**A.** 63 nM

**Q.** Which IC50 does the source give for `C[C@H]1COCCN1c1cc(CO)nc(-c2ccc(NC(=O)Nc3ccccc3)cc2)n1` [Example 6, 1-[4-[4-(Hydroxymethyl)-6-[(3S)-3-methylmorpholin-4-yl]pyrimidin-2-yl]phenyl]-3-phenyl-urea] here?
**A.** 560 nM

**Q.** Which IC50 does the source give for `CC(C)NC(=O)Nc1ccc(-c2nc(CS(C)(=O)=O)cc(N3CCOCC3)n2)cc1` [Example 7, 3-[4-[4-(Methylsulfonylmethyl)-6-morpholin-4-yl-pyrimidin-2-yl]phenyl]-1-propan-2-yl-urea] here?
**A.** 170 nM

**Q.** With `Cc1ccc(NC(=O)Nc2ccc(-c3nc(CS(C)(=O)=O)cc(N4CCOCC4)n3)cc2)cc1` [Example 7a, 1-(4-methylphenyl)-3-[4-[4-(methylsulfonylmethyl)-6-morpholin-4-yl-pyrimidin-2-yl]phenyl]urea] as the compound, how does the IC50 read?
**A.** 280 nM
